From patent US8729053B2, “Nuclear factor kappa B pathway inhibitor composition and use of same” (The United States of America, as represented by the …, priority 2008, dated 2014)
“Also recorded” adds a separate entry of the source. Structures can show the parent of a compound that is named as a salt.

How the values were obtained:
RelB/p52 = experiment: Nuclear translocation of RelB/p52 and p100 processing, immunoblot; assay type: cell-based; details: HEK293
Description: To measure endogenous level of several proteins in response to TPA induction and compound I, HEK293 cells were lysed with RIPA buffer (10 mM Tris-HCl pH 7.5, 1 mM EDTA, 0.1% sodium dodecyl sulfate, 0.1% deoxycholate, and protease inhibitor). Whole cell extracts were subjected to immunoblot analysis with the following antibodies: p65 (F-6), p50 (E-10), p52 (C-5), RelB (C-19), IκBα (C-21), PCNA (F-2) were obtained from Santa Cruz Biotechnology (Santa Cruz, Calif.). IKKα, IKKβ, IKKγ, phospho-IκBα, phospho-IKKα/β, phospho-IKKγ, pohospho-Stat3 (Tyr 705 and Ser 727), phospho-p65 (Ser536 and Ser276), phospho-p44/42, phospho-JNKs were purchased from Cell Signaling (Danvers, Mass.), and α-tubulin from Sigma (St. Louis, Mo.). Nuclear and cytoplasmic extracts were prepared with HEK293 cells by NE-PER Nuclear and Cytoplasmic Extraction Reagents (Pierce Biotechnology, Rockford, Ill.) according to the manufacturer's protocol.
Nuclear translocation of endogenous p65/p50 and RelB/p52 heterodimers were monitored The activation of heterodimers p65/p50 and RelB/p52 occurs by distinct pathways dependent on IKKβ or IKKα catalytic activity. Repression of IKKβ would be expected to influence nuclear translocation of p65/p50 while repression of IKKα would influence processing of p100 to p52. […] However translocation of RelB is only dependent on IKKα for processing of its dimer partner p52 from p100. This processing depends on phosphorylation of p100 by IKKα. The processing of p100 to nuclear p52 was not inhibited by compound I but was proportional to expression levels of p100. Compound I inhibited expression of p100 by an unknown mechanism. […] Instead compound I inhibits IKKβ.

JB6 cells (clone 41) = experiment: JB6 soft agar cell transformation assay; assay type: cell-based, mouse; details: for Transformation response to TPA: 10 days, TPA 10 ng/ml
Description: JB6 cells (clone 41) were used to assess the inhibitory activity of compound I using CytoSelect 96-well Cell Transformation Assay (Cell Biolabs, Huissen, Netherlands) as Soft Agar Assay according to manufacturer's instructions. Cells were incubated for 10 days in 0.4% agar medium over 0.6% agar containing TPA or TPA with compound I or DMSO as a control. To measure anchorage-independent growth, agar-layers were dissolved and lysed. 10 μl of the lysed solutions of each well were mixed with CyQuant and the fluorescence read by iQ5 with a FAM filter of 485/520 nm. As an alternative analysis, cell dose curves of JB6 cells were quantified by the End point using CyQuant to indicate relative anchorage-independent colony number.
In order to evaluate the potential therapeutic activity of the compound, tests for the biological activity of compound I were performed. The compound is non-toxic to MCF-7, T47D, and MDA-MB-231 breast cancer cells as estimated by XTT assay at 10 μM. To determine the effects of compound I on invasion by breast cancer cell lines, a matrigel invasion assay was used. The levels of phosphorylated IκBα were confirmed in TPA treated ER-positive (MCF-7 and T47D) and ER-negative (MDA-MB-231) breast cancer cell lines and compared the levels to those after pretreatment with compound I. Although induced levels of phosphorylated IκBα varied with the cell line, IκBα phosphorylation was eliminated by compound I treatment in all three breast cancer cell lines. Compound I also produced no effect on the estrogen receptor activity in the ER-positive breast cancer cells using ERE promoter luciferase reporter assay. Invasion capacity of breast cancer cells was increased by TPA stimulation compared to DMSO treated vehicle control. […] Following anchorage-independent colony induction in TPA-treated cells without or with compound I, colonies were lysed and measured with CyQuant GR Dye to detect DNA by fluorescence plate reader as a measure of colony count. Total transformed colony numbers were calculated from RFU and cell dose curve of JB6 cells. […]

IL-6 mRNA = experiment: Quantitative RT-PCR of endogenous IL-6 mRNA in HEK293 cells; assay type: cell-based, human; details: concentrations as low as 2.1 μM, 1 hour pretreatment, TPA 18 hours, normalized by GAPDH
Description: Total RNA was isolated from HEK293 cells after pretreatment with varying compound I and/or TPA stimulation by ToTALLY RNA kit (Ambion, Austin, Tex.), and first-strand cDNA was synthesized from 1 μg of the isolated total RNA using the SuperScript III First-Strand Synthesis System (Invitrogen, Carlsbad, Calif.) with random hexamers, oligonucleotide primers. cDNA was purified by QIAquick PCR purification kit (Qiagen, Valencia, Calif.) according to the manufacturer's manual. Real-time PCR was performed with iQ SYBR Green Supermix (Bio-Rad, Hercules, Calif.) by iQ5 Multicolor RT-PCR detection system (Bio-Rad, Hercules, Calif.). Primers for endogenous human IL-6 were designed by Primer 3 program (http://frodo.wi.mit.edu/). Human glyceraldehyde-3-phosphate dehydrogenase (hGAPDH) was used as a control. The sequences for RT-PCR are as follows:
Inhibition of NFκB transactivation would be expected to result in suppressed expression of genes whose transcription depends on NFκB. Quantitative RT-PCR was used to measure endogenous levels of IL-6 mRNA, transcribed from a gene whose transcription depends on NFκB but not AP-1. […] Plasmids expressing luciferase reporters were driven by promoters for COX-2, uPAR (urokinase-type plasminogen activator receptor), or VEGF. […]

Cc1cc(N)ccc1N=Nc1ccc(S(=O)(=O)CCOS(=O)(=O)O)cc1 [compound I, 2-(4-((4-amino-2-methylphenyl)diazenyl)phenylsulfonyl)ethyl hydrogen sulfate]
Expression of p100 (RelB/p52): inhibited; also recorded: reduced
Processing of p100 to nuclear p52 (RelB/p52): not inhibited; also recorded: did not inhibit
TPA-induced nuclear translocation of RelB (RelB/p52; compound I pretreatment): remarkably repressed
Tumor promoter induced transformation of JB6 cells (JB6 cells (clone 41)): inhibits
Transformation response to TPA (JB6 cells (clone 41); 1.1 μM): decreased
Transformation response to TPA (JB6 cells (clone 41); 17.0 μM to 2.1 μM): repressed to below vehicle control level
Part of TPA induction of IL-6 mRNA prevented (IL-6 mRNA): more than half
